Reference: ChEMBL document CHEMBL5303573, “Mapping human microbiome drug metabolism by gut bacteria and their genes” (Nature, 2019)

Assay: The drug is tested on Eubacterium ventriosum strain: ATCC27560 for biotransformation. The drug concentrations were measured before and after a 12-h incubation by liquid-chromatography-coupled mass spectrometry (LC–MS)
Type: ADME
Set-up: dose 2 uM, timepoint 0 vs 12 hours
Settings: 2 µM
For `CN1CCN(C(=O)O[C@H]2c3nccnc3C(=O)N2c2ccc(Cl)cn2)CC1` [ESZOPICLONE], the “Bacterial Biotransformation” value was “Compound NOT metabolized”.
With `CCCN1C[C@H](CSC)C[C@@H]2c3cccc4[nH]cc(c34)C[C@H]21.CS(=O)(=O)O` [PERGOLIDE MESYLATE] the “Bacterial Biotransformation” value was “Compound NOT metabolized”.
In the case of `CCN(CC)CCNC(=O)c1cc(Cl)c(N)cc1OC` [METOCLOPRAMIDE], the “Bacterial Biotransformation” value is reported as “Compound NOT metabolized”.

Assay: The drug is tested on Bifidobacterium longum subsp. Infantis strain: CCUG52486 for biotransformation. The drug concentrations were measured before and after a 12-h incubation by liquid-chromatography-coupled mass spectrometry (LC–MS)
Settings: 2 µM
For `CN1CCN(C(=O)O[C@H]2c3nccnc3C(=O)N2c2ccc(Cl)cn2)CC1` [ESZOPICLONE], the “Bacterial Biotransformation” value was “Compound metabolized”.
For `CCCN1C[C@H](CSC)C[C@@H]2c3cccc4[nH]cc(c34)C[C@H]21.CS(=O)(=O)O` [PERGOLIDE MESYLATE], the “Bacterial Biotransformation” value was “Compound NOT metabolized”.
With `CCN(CC)CCNC(=O)c1cc(Cl)c(N)cc1OC` [METOCLOPRAMIDE] the “Bacterial Biotransformation” value was “Compound NOT metabolized”.

Settings: limosilactobacillus reuteri cf48-3a, 12 h, 2 µM
Description: The drug is tested on Lactobacillus reuteri CF48-3A strain: BEI HM-102 for biotransformation. The drug concentrations were measured before and after a 12-h incubation by liquid-chromatography-coupled mass spectrometry (LC–MS)
For `CN1CCN(C(=O)O[C@H]2c3nccnc3C(=O)N2c2ccc(Cl)cn2)CC1` [ESZOPICLONE], the “Bacterial Biotransformation” value was “Compound NOT metabolized”.
With `CCCN1C[C@H](CSC)C[C@@H]2c3cccc4[nH]cc(c34)C[C@H]21.CS(=O)(=O)O` [PERGOLIDE MESYLATE] the “Bacterial Biotransformation” value was “Compound NOT metabolized”.
In the case of `CCN(CC)CCNC(=O)c1cc(Cl)c(N)cc1OC` [METOCLOPRAMIDE], the “Bacterial Biotransformation” value is reported as “Compound NOT metabolized”.

Assay: The drug is tested on Ruminococcus gnavus strain: ATCC29149 for biotransformation. The drug concentrations were measured before and after a 12-h incubation by liquid-chromatography-coupled mass spectrometry (LC–MS)
Settings: mediterraneibacter gnavus, 2 µM
For `CN1CCN(C(=O)O[C@H]2c3nccnc3C(=O)N2c2ccc(Cl)cn2)CC1` [ESZOPICLONE], the “Bacterial Biotransformation” value was “Compound NOT metabolized”.
With `CCCN1C[C@H](CSC)C[C@@H]2c3cccc4[nH]cc(c34)C[C@H]21.CS(=O)(=O)O` [PERGOLIDE MESYLATE] the “Bacterial Biotransformation” value was “Compound NOT metabolized”.
In the case of `CCN(CC)CCNC(=O)c1cc(Cl)c(N)cc1OC` [METOCLOPRAMIDE], the “Bacterial Biotransformation” value is reported as “Compound NOT metabolized”.

Settings: bacteroides fragilis, 12 h, 2 µM
Description: The drug is tested on Bacteroides fragilis strain: NCTC 9343 for biotransformation. The drug concentrations were measured before and after a 12-h incubation by liquid-chromatography-coupled mass spectrometry (LC–MS)
In the case of `CN1CCN(C(=O)O[C@H]2c3nccnc3C(=O)N2c2ccc(Cl)cn2)CC1` [ESZOPICLONE], the “Bacterial Biotransformation” value is reported as “Compound NOT metabolized”.
For `CCCN1C[C@H](CSC)C[C@@H]2c3cccc4[nH]cc(c34)C[C@H]21.CS(=O)(=O)O` [PERGOLIDE MESYLATE], the “Bacterial Biotransformation” value was “Compound NOT metabolized”.
In the case of `CCN(CC)CCNC(=O)c1cc(Cl)c(N)cc1OC` [METOCLOPRAMIDE], the “Bacterial Biotransformation” value is reported as “Compound NOT metabolized”.

Assay: The drug is tested on Bacteroides dorei strain: DSM17855 for biotransformation. The drug concentrations were measured before and after a 12-h incubation by liquid-chromatography-coupled mass spectrometry (LC–MS)
Settings: phocaeicola dorei, 2 µM
With `CN1CCN(C(=O)O[C@H]2c3nccnc3C(=O)N2c2ccc(Cl)cn2)CC1` [ESZOPICLONE] the “Bacterial Biotransformation” value was “Compound NOT metabolized”.
In the case of `CCCN1C[C@H](CSC)C[C@@H]2c3cccc4[nH]cc(c34)C[C@H]21.CS(=O)(=O)O` [PERGOLIDE MESYLATE], the “Bacterial Biotransformation” value is reported as “Compound NOT metabolized”.
For `CCN(CC)CCNC(=O)c1cc(Cl)c(N)cc1OC` [METOCLOPRAMIDE], the “Bacterial Biotransformation” value was “Compound NOT metabolized”.

Settings: bacteroides intestinalis, 12 h, 2 µM
Description: The drug is tested on Bacteroides intestinalis strain: DSM17393 for biotransformation. The drug concentrations were measured before and after a 12-h incubation by liquid-chromatography-coupled mass spectrometry (LC–MS)
For `CCCN1C[C@H](CSC)C[C@@H]2c3cccc4[nH]cc(c34)C[C@H]21.CS(=O)(=O)O` [PERGOLIDE MESYLATE], the “Bacterial Biotransformation” value was “Compound NOT metabolized”.
In the case of `CCN(CC)CCNC(=O)c1cc(Cl)c(N)cc1OC` [METOCLOPRAMIDE], the “Bacterial Biotransformation” value is reported as “Compound NOT metabolized”.

Assay: The drug is tested on Bacteroides finegoldii strain: DSM17565 for biotransformation. The drug concentrations were measured before and after a 12-h incubation by liquid-chromatography-coupled mass spectrometry (LC–MS)
Settings: 2 µM
In the case of `CCCN1C[C@H](CSC)C[C@@H]2c3cccc4[nH]cc(c34)C[C@H]21.CS(=O)(=O)O` [PERGOLIDE MESYLATE], the “Bacterial Biotransformation” value is reported as “Compound NOT metabolized”.
In the case of `CCN(CC)CCNC(=O)c1cc(Cl)c(N)cc1OC` [METOCLOPRAMIDE], the “Bacterial Biotransformation” value is reported as “Compound NOT metabolized”.

Assay: The drug is tested on Anaerotruncus colihominis strain: DSM17241 for biotransformation. The drug concentrations were measured before and after a 12-h incubation by liquid-chromatography-coupled mass spectrometry (LC–MS)
Settings: 2 µM
In the case of `CN1CCN(C(=O)O[C@H]2c3nccnc3C(=O)N2c2ccc(Cl)cn2)CC1` [ESZOPICLONE], the “Bacterial Biotransformation” value is reported as “Compound metabolized”.
With `CCCN1C[C@H](CSC)C[C@@H]2c3cccc4[nH]cc(c34)C[C@H]21.CS(=O)(=O)O` [PERGOLIDE MESYLATE] the “Bacterial Biotransformation” value was “Compound NOT metabolized”.
For `CCN(CC)CCNC(=O)c1cc(Cl)c(N)cc1OC` [METOCLOPRAMIDE], the “Bacterial Biotransformation” value was “Compound NOT metabolized”.

Assay: The drug is tested on Eubacterium hallii strain: DSM3353 for biotransformation. The drug concentrations were measured before and after a 12-h incubation by liquid-chromatography-coupled mass spectrometry (LC–MS)
Settings: anaerobutyricum hallii, 2 µM
With `CN1CCN(C(=O)O[C@H]2c3nccnc3C(=O)N2c2ccc(Cl)cn2)CC1` [ESZOPICLONE] the “Bacterial Biotransformation” value was “Compound metabolized”.
In the case of `CCCN1C[C@H](CSC)C[C@@H]2c3cccc4[nH]cc(c34)C[C@H]21.CS(=O)(=O)O` [PERGOLIDE MESYLATE], the “Bacterial Biotransformation” value is reported as “Compound NOT metabolized”.
For `CCN(CC)CCNC(=O)c1cc(Cl)c(N)cc1OC` [METOCLOPRAMIDE], the “Bacterial Biotransformation” value was “Compound NOT metabolized”.

Assay: The drug is tested on Bacteroides fragilis strain: HMW615 for biotransformation. The drug concentrations were measured before and after a 12-h incubation by liquid-chromatography-coupled mass spectrometry (LC–MS)
Settings: 2 µM
In the case of `CN1CCN(C(=O)O[C@H]2c3nccnc3C(=O)N2c2ccc(Cl)cn2)CC1` [ESZOPICLONE], the “Bacterial Biotransformation” value is reported as “Compound NOT metabolized”.
With `CCCN1C[C@H](CSC)C[C@@H]2c3cccc4[nH]cc(c34)C[C@H]21.CS(=O)(=O)O` [PERGOLIDE MESYLATE] the “Bacterial Biotransformation” value was “Compound NOT metabolized”.
For `CCN(CC)CCNC(=O)c1cc(Cl)c(N)cc1OC` [METOCLOPRAMIDE], the “Bacterial Biotransformation” value was “Compound NOT metabolized”.

Settings: bacteroides thetaiotaomicron, 12 h, 2 µM
Description: The drug is tested on Bacteroides thetaiotaomicron strain: 3731 for biotransformation. The drug concentrations were measured before and after a 12-h incubation by liquid-chromatography-coupled mass spectrometry (LC–MS)
For `CN1CCN(C(=O)O[C@H]2c3nccnc3C(=O)N2c2ccc(Cl)cn2)CC1` [ESZOPICLONE], the “Bacterial Biotransformation” value was “Compound NOT metabolized”.
In the case of `CCCN1C[C@H](CSC)C[C@@H]2c3cccc4[nH]cc(c34)C[C@H]21.CS(=O)(=O)O` [PERGOLIDE MESYLATE], the “Bacterial Biotransformation” value is reported as “Compound NOT metabolized”.
In the case of `CCN(CC)CCNC(=O)c1cc(Cl)c(N)cc1OC` [METOCLOPRAMIDE], the “Bacterial Biotransformation” value is reported as “Compound NOT metabolized”.

Settings: roseburia intestinalis, 12 h, 2 µM
Description: The drug is tested on Roseburia intestinalis strain: L1-82 for biotransformation. The drug concentrations were measured before and after a 12-h incubation by liquid-chromatography-coupled mass spectrometry (LC–MS)
With `CN1CCN(C(=O)O[C@H]2c3nccnc3C(=O)N2c2ccc(Cl)cn2)CC1` [ESZOPICLONE] the “Bacterial Biotransformation” value was “Compound NOT metabolized”.
For `CCCN1C[C@H](CSC)C[C@@H]2c3cccc4[nH]cc(c34)C[C@H]21.CS(=O)(=O)O` [PERGOLIDE MESYLATE], the “Bacterial Biotransformation” value was “Compound NOT metabolized”.
For `CCN(CC)CCNC(=O)c1cc(Cl)c(N)cc1OC` [METOCLOPRAMIDE], the “Bacterial Biotransformation” value was “Compound NOT metabolized”.

Assay: The drug is tested on Bifidobacterium ruminantium strain: fecal isolate for biotransformation. The drug concentrations were measured before and after a 12-h incubation by liquid-chromatography-coupled mass spectrometry (LC–MS)
Settings: 2 µM
With `CN1CCN(C(=O)O[C@H]2c3nccnc3C(=O)N2c2ccc(Cl)cn2)CC1` [ESZOPICLONE] the “Bacterial Biotransformation” value was “Compound NOT metabolized”.
For `CCCN1C[C@H](CSC)C[C@@H]2c3cccc4[nH]cc(c34)C[C@H]21.CS(=O)(=O)O` [PERGOLIDE MESYLATE], the “Bacterial Biotransformation” value was “Compound NOT metabolized”.
With `CCN(CC)CCNC(=O)c1cc(Cl)c(N)cc1OC` [METOCLOPRAMIDE] the “Bacterial Biotransformation” value was “Compound NOT metabolized”.

Assay: The drug is tested on Clostridium ramosum strain: DSM1402 for biotransformation. The drug concentrations were measured before and after a 12-h incubation by liquid-chromatography-coupled mass spectrometry (LC–MS)
Settings: thomasclavelia ramosa, 2 µM
For `CN1CCN(C(=O)O[C@H]2c3nccnc3C(=O)N2c2ccc(Cl)cn2)CC1` [ESZOPICLONE], the “Bacterial Biotransformation” value was “Compound NOT metabolized”.
With `CCCN1C[C@H](CSC)C[C@@H]2c3cccc4[nH]cc(c34)C[C@H]21.CS(=O)(=O)O` [PERGOLIDE MESYLATE] the “Bacterial Biotransformation” value was “Compound NOT metabolized”.
With `CCN(CC)CCNC(=O)c1cc(Cl)c(N)cc1OC` [METOCLOPRAMIDE] the “Bacterial Biotransformation” value was “Compound NOT metabolized”.

Assay: The drug is tested on Bacteroides xylanisolvens strain: DSM18836 for biotransformation. The drug concentrations were measured before and after a 12-h incubation by liquid-chromatography-coupled mass spectrometry (LC–MS)
Settings: 2 µM
In the case of `CN1CCN(C(=O)O[C@H]2c3nccnc3C(=O)N2c2ccc(Cl)cn2)CC1` [ESZOPICLONE], the “Bacterial Biotransformation” value is reported as “Compound NOT metabolized”.
For `CCCN1C[C@H](CSC)C[C@@H]2c3cccc4[nH]cc(c34)C[C@H]21.CS(=O)(=O)O` [PERGOLIDE MESYLATE], the “Bacterial Biotransformation” value was “Compound NOT metabolized”.
For `CCN(CC)CCNC(=O)c1cc(Cl)c(N)cc1OC` [METOCLOPRAMIDE], the “Bacterial Biotransformation” value was “Compound NOT metabolized”.

Assay: The drug is tested on Collinsella aerofaciens strain: ATCC25986 for biotransformation. The drug concentrations were measured before and after a 12-h incubation by liquid-chromatography-coupled mass spectrometry (LC–MS)
Settings: 2 µM
For `CN1CCN(C(=O)O[C@H]2c3nccnc3C(=O)N2c2ccc(Cl)cn2)CC1` [ESZOPICLONE], the “Bacterial Biotransformation” value was “Compound metabolized”.
For `CCCN1C[C@H](CSC)C[C@@H]2c3cccc4[nH]cc(c34)C[C@H]21.CS(=O)(=O)O` [PERGOLIDE MESYLATE], the “Bacterial Biotransformation” value was “Compound NOT metabolized”.
With `CCN(CC)CCNC(=O)c1cc(Cl)c(N)cc1OC` [METOCLOPRAMIDE] the “Bacterial Biotransformation” value was “Compound NOT metabolized”.

Assay: The drug is tested on Providencia stuartii strain: ATCC25827 for biotransformation. The drug concentrations were measured before and after a 12-h incubation by liquid-chromatography-coupled mass spectrometry (LC–MS)
Settings: 2 µM
With `CN1CCN(C(=O)O[C@H]2c3nccnc3C(=O)N2c2ccc(Cl)cn2)CC1` [ESZOPICLONE] the “Bacterial Biotransformation” value was “Compound NOT metabolized”.
For `CCCN1C[C@H](CSC)C[C@@H]2c3cccc4[nH]cc(c34)C[C@H]21.CS(=O)(=O)O` [PERGOLIDE MESYLATE], the “Bacterial Biotransformation” value was “Compound NOT metabolized”.
In the case of `CCN(CC)CCNC(=O)c1cc(Cl)c(N)cc1OC` [METOCLOPRAMIDE], the “Bacterial Biotransformation” value is reported as “Compound NOT metabolized”.

Assay: The drug is tested on Bacteroides sp. WH2 strain: WH2 for biotransformation. The drug concentrations were measured before and after a 12-h incubation by liquid-chromatography-coupled mass spectrometry (LC–MS)
Settings: bacteroides sp. wh2, 12 h, 2 µM
For `CN1CCN(C(=O)O[C@H]2c3nccnc3C(=O)N2c2ccc(Cl)cn2)CC1` [ESZOPICLONE], the “Bacterial Biotransformation” value was “Compound NOT metabolized”.
In the case of `CCCN1C[C@H](CSC)C[C@@H]2c3cccc4[nH]cc(c34)C[C@H]21.CS(=O)(=O)O` [PERGOLIDE MESYLATE], the “Bacterial Biotransformation” value is reported as “Compound NOT metabolized”.
With `CCN(CC)CCNC(=O)c1cc(Cl)c(N)cc1OC` [METOCLOPRAMIDE] the “Bacterial Biotransformation” value was “Compound NOT metabolized”.
